According to ChEMBL document CHEMBL1201862, “PubChem BioAssay data set” (2004):
The source made the active and inactive calls.

Experiments:
[1] = NIH-3T3 fibroblast cytotoxicity, dose response, cytotoxicity control, cell-based, fluorescence, Alamar Blue, secondary assay (AID 2327); format: functional;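 note: NIH-3T3 mouse fibroblasts cultured with fluconazole at 8 µg/mL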
[2] = fluconazole-exposed Candida albicans growth modulators – fluorescence, retest, confirmation (AID 2467); format: functional, cell-based
[3] = Trypanosoma cruzi growth suppression in host cells – NIH3T3 host cells, beta-gal luminescence, confirmation (AID 2044); format: functional, cell-based;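 note: intracellular parasites grown in NIH/3T3 mouse fibroblasts as host cells; luminescent beta-galactosidase reporter signal from transgenic T. cruzi replicating inside host cells; inhibitors lower the luminescence signal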
[4] = NIH3T3 cell viability loss – ATP luminescence, mouse fibroblasts, counter-screen, dose response (AID 2010); format: functional, cell-based;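 note: cells exposed to compound for about 90 hours before reading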
[5] = target: T1, Microphthalmia-associated transcription factor (Homo sapiens, UniProt O75030); assay: reducers of TRPM1 reporter luminescence, concentration series – cell-based, SK-MEL-5, cherry-picked, set 3, MITF inhibitor project, dose response (AID 493073); format: functional;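 note: SK-MEL-5 melanoma cells with luciferase driven by the MITF target TRPM1 promoter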
T1 sequence (O75030 whole entry): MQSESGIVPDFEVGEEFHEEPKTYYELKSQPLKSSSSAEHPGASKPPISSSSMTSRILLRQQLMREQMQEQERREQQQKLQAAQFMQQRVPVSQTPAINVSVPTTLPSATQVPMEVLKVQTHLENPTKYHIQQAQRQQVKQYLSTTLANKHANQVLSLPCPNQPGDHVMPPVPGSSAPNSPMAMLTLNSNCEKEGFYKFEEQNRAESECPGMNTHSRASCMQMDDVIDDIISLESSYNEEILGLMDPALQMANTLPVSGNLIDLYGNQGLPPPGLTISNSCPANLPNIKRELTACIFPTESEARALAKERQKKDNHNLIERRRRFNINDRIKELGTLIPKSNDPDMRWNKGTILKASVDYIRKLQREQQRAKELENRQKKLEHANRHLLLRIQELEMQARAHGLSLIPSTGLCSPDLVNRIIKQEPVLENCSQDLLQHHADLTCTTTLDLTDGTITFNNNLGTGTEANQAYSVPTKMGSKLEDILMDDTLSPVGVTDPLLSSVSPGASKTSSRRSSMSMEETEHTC

Protein Wnt-3a = Protein Wnt-3a (Mus musculus, UniProt P27467); assay: antagonism of Wnt3a pathway luciferase reporter – Wnt-LIGHT cells, luminescence, selectivity assay for Gli-SUFU antagonist project, dose response (AID 651570); format: functional; conditions: read-out: IC50_Mean;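 note: Wnt-LIGHT reporter cells stimulated with conditioned medium from Wnt3a-producing cells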
Chain of Protein Wnt-3a (P27467 whole entry): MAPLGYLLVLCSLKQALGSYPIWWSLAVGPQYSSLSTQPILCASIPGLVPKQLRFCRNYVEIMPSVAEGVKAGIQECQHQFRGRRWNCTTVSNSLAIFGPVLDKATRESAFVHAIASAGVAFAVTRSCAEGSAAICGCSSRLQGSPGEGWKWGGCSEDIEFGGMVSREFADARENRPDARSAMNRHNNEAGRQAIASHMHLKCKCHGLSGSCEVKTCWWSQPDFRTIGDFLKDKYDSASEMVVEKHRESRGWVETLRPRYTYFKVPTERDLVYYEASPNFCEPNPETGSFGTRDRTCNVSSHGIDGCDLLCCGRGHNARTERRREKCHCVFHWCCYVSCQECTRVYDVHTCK

[6] = target: FAD-linked sulfhydryl oxidase ALR (Homo sapiens, UniProt P55789); assay: ALR-catalysed DTT oxidation blockers – biochemical, H2O2 detection, luminescence, cherry-pick, dose response (AID 493248)
Chain of FAD-linked sulfhydryl oxidase ALR (P55789 whole entry): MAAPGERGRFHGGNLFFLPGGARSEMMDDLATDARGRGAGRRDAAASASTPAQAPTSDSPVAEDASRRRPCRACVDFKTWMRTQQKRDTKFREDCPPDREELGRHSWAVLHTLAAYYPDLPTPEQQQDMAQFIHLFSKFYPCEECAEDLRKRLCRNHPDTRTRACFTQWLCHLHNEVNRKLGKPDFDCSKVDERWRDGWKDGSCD

[7] = target: T2, Lysine-specific demethylase 4C (Homo sapiens, UniProt Q9H3R0); assay: inhibition of JMJD2C H3K9me3 demethylation – biochemical, DELFIA europium, cherry-picked samples, dose response (AID 488835); format: functional
T2 sequence (Q9H3R0 whole entry): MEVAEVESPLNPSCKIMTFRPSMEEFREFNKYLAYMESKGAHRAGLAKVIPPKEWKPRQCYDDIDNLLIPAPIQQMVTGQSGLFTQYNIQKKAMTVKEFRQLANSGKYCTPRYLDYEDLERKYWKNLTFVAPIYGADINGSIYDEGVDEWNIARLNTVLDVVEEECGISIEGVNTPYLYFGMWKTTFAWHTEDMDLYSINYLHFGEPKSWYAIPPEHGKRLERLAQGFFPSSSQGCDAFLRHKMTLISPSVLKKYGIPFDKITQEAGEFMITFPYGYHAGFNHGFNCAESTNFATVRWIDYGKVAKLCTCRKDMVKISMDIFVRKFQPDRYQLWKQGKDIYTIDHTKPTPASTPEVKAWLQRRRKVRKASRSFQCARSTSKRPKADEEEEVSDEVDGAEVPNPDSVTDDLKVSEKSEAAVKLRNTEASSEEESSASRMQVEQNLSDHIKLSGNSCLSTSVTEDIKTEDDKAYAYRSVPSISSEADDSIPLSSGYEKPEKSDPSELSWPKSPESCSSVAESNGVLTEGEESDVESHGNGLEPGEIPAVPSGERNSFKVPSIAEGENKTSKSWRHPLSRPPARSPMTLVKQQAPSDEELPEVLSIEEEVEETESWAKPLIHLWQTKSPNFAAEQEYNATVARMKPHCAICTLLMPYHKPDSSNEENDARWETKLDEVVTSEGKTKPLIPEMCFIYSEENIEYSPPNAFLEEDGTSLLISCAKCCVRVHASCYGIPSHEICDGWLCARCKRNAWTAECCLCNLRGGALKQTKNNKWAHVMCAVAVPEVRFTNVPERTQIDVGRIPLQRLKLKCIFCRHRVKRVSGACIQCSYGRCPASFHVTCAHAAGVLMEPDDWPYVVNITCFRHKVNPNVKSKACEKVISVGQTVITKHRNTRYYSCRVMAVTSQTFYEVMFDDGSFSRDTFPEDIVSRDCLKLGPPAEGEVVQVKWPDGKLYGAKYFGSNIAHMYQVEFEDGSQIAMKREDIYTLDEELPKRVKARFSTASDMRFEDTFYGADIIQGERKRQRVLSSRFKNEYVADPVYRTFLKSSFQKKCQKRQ

Cytochrome P450 2C9 [8] = target: T3, Cytochrome P450 2C9 (Homo sapiens, UniProt P11712)
T3 sequence (P11712 whole entry): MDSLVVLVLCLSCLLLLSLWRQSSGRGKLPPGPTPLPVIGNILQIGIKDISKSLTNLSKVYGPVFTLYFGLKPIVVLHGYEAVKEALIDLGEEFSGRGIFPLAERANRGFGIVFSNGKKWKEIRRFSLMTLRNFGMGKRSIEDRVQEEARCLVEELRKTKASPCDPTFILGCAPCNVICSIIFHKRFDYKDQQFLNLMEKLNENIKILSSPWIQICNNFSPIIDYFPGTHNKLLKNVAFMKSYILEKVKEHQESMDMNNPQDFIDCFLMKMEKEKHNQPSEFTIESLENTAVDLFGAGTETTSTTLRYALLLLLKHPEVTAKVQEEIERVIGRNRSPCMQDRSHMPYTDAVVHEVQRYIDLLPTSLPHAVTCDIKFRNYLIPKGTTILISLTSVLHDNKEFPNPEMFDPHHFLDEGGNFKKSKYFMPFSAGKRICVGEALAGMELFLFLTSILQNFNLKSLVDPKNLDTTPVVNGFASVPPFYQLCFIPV

Cytochrome P450 3A4 = Cytochrome P450 3A4 (Homo sapiens, UniProt P08684);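 note: CYP3A4 tested as one member of a cytochrome P450 panel screen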
Chain of Cytochrome P450 3A4 (P08684 whole entry): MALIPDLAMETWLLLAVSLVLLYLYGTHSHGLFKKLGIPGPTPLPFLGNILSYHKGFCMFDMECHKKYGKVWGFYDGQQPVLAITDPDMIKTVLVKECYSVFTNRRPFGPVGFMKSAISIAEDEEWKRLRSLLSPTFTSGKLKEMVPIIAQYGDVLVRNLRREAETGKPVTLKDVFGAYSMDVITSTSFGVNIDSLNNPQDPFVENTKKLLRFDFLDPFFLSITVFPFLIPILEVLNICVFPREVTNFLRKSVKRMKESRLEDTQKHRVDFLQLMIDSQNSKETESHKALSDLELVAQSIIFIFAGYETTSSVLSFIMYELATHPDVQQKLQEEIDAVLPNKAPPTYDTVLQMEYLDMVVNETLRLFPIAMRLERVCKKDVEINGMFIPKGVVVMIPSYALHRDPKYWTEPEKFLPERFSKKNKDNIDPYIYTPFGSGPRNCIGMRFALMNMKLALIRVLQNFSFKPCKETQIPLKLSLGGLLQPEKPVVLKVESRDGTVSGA

Cytochrome P450 2C19 = Cytochrome P450 2C19 (Homo sapiens, UniProt P33261); assay: Cytochrome panel assay with activity outcomes. Panel member name: p450-cyp2c19 Compounds with AC50 equal or less than 10 uM are considered active; format: functional; conditions: read-out: AC50
Chain of Cytochrome P450 2C19 (P33261 whole entry): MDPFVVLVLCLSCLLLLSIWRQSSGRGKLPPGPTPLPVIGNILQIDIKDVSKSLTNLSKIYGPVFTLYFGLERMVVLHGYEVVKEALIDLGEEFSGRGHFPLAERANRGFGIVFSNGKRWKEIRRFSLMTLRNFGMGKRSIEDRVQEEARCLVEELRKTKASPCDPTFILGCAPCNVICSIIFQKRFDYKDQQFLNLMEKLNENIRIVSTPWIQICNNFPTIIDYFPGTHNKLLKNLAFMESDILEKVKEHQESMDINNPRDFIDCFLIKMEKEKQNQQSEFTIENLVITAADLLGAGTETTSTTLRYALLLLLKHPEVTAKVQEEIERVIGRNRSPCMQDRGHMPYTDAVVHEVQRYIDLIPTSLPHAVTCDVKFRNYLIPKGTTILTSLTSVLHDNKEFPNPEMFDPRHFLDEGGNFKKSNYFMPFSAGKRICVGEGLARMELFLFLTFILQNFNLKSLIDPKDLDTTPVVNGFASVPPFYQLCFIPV

[9] = target: T4, High affinity choline transporter 1 (Homo sapiens, UniProt Q9GZV3); assay: human choline transporter blockers, potency – cell-based, 5-point CRC, membrane potential dye, dose response (AID 504840); format: functional
T4 sequence (Q9GZV3 whole entry): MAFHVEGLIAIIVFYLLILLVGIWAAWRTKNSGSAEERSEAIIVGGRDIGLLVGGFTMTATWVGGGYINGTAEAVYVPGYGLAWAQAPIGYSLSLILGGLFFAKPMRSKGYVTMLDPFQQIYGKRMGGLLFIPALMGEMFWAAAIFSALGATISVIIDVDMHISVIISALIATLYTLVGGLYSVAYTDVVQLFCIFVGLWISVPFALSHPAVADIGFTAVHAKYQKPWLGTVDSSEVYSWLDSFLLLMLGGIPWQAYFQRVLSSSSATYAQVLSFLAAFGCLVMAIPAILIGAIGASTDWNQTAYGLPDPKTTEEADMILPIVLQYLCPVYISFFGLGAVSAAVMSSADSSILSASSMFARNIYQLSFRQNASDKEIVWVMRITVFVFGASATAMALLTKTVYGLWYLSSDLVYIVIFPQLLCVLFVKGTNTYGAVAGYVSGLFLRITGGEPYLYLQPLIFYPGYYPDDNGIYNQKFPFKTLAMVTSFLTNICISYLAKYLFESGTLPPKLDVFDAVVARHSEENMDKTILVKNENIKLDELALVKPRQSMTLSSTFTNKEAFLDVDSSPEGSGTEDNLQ

INS1 = assay: INS-1E survival protection against cytokine death – cell-based, luminescence, retest, dose response (AID 449756); format: functional; conditions: Rattus norvegicus;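 note: cell death triggered by IL-1 beta plus TNF-alpha plus IFN-gamma mixture; protective hits raise ATP signal compared with cytokine alone wells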
Cytochrome P450 2C9 [10] = target: T3, Cytochrome P450 2C9; remark: listed apart in the source
BJ [11] = assay: BJ-TERT fibroblast viability loss – cell-based, RAS-independent, luminescence, dose response (AID 1933); format: functional; conditions: Homo sapiens
BJ [12] = assay: cells; format: functional, cell-based; conditions: Homo sapiens
BJ [13] = assay: BJ-TERT-LT-ST fibroblast viability loss – cell-based, RAS-independent, luminescence, dose response (AID 1935); format: functional; conditions: Homo sapiens;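 note: BJ fibroblasts immortalized with TERT plus LT and ST oncogenes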
[14] = DRD fibroblast viability loss – cell-based, non-viral oncogenic, luminescence, dose response (AID 1934); format: functional; conditions: Homo sapiens
BJ [15] = assay: growth inhibition of engineered Ras-driven BJ cells – cell-based, alamar blue fluorescence, cherrypicked samples, dose response (AID 2631); format: functional; conditions: Homo sapiens;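 note: confirmatory dose-response assay in RAS-dependent BJ fibroblasts engineered with TERT, LT and ST, with cytotoxicity read by fluorescence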

CCOc1ccc(-c2cc(C)[n+](CCO)c(-c3ccc(OCC)cc3)c2)cc1.[O-][Cl+3]([O-])([O-])[O-]
EC50 [1]: > 160 µM (inactive)
EC50 [2]: > 38 µM (not active)
EC50 [3]: < 0.1 µM (active)
EC50 [4]: > 60 µM (inconclusive)
AC50 [5]: 11.1 µM (active)
IC50 (Protein Wnt-3a): 50 µM (inactive)
EC50 (cells): 0.079 µM (active)

c1ccc(-c2nc(-c3ccco3)cs2)nc1
AC50 [6]: 0.593 µM (active)
AC50 [7]: 20 µM (active)

CN1CCN(c2ncc3nc(CCc4ccccc4)c(=O)n(C)c3n2)CC1
AC50 (Cytochrome P450 2C9 [8]): 39.8 µM (inconclusive)
AC50 (Cytochrome P450 3A4): inconclusive

CCC(=O)O[C@H]1CC[C@H]2[C@@H]3CCC4=CC(=O)CC[C@]4(C)[C@H]3CC[C@]12C [TESTOSTERONE PROPIONATE]
AC50 (Cytochrome P450 2C19): 10 µM (inconclusive)
AC50 (Cytochrome P450 2C9 [8]): 12.6 µM (inconclusive)
AC50 (Cytochrome P450 3A4): inconclusive

C=CCN1CCc2c(cc(O)c(O)c2Br)[C@H](c2ccccc2)C1
AC50 (Cytochrome P450 2C9 [8]): 31.6 µM (inconclusive)
AC50 (Cytochrome P450 3A4): inconclusive

CCCOc1ccc(Br)cc1CSC(=N)N
IC50 [9]: 15.9 µM (active)
AC50 (INS1): 6.45 µM (active)
IC50 (Protein Wnt-3a): 9.88 µM (active)

C/C(Nc1c(C)n(C)n(-c2ccccc2)c1=O)=C1/C(=O)NC(=O)N(Cc2ccccc2)C1=O
AC50 (Cytochrome P450 3A4): inconclusive
AC50 (Cytochrome P450 2C9 [10]): inconclusive

N=c1c2c(-c3ccccc3)c(-c3ccccc3)n(Cc3ccco3)c2ncn1CCCn1ccnc1
EC50 (BJ [11]): 9.46 µM (active)
EC50 (BJ [12]): 22.5 µM (active)
EC50 (BJ [13]): > 75 µM (not active)
EC50 [14]: 9.54 µM (active)
EC50 (BJ [15]): 1.81 µM (active)
